# According to patent US9658212B2, “Process for evaluating active agent(s) capable of preserving the functionality of epithelial stem cells” (L'OREAL, priority 2012, dated 2017):
# Entries after “also recorded” stand apart in the source; their conditions may differ.
# What was measured:
# [1] = tested on: gene encoding carbonic anhydrase IX; assay: Transcriptomic analysis (RT-qPCR) of the carbonic anhydrase IX gene in hair bulbs cultured ex vivo; type: cell-based, human; conditions: whole hair bulbs, 4 hours incubation, normoxic conditions (21% dioxygen), compared with hypoxic conditions (3% dioxygen)
# Source text: A second evaluation process may consist in carrying out a transcriptomic analysis of carbonic anhydrase IX, of which the expression of the corresponding gene is modified by a hypoxic signal, using the RT-qPCR technique, on keratin materials, for example on in vitro cultures of keratinocytes or hair bulbs isolated by microdissection and placed in culture ex vivo, under hypoxic conditions, and under normoxic conditions in the presence or absence of said active agent(s) to be tested, in order to study whether the active agent(s) is (are) capable of mimicking a hypoxic state.
# This second process consists in carrying out a transcriptomic analysis of the gene encoding carbonic anhydrase IX, the expression of which is modified by a hypoxic signal, using the RT-qPCR technique, on hair bulbs isolated by microdissection at the level of the human scalp hypodermis and placed in culture ex vivo for 4 hours either under hypoxic conditions (3% dioxygen) or at 21% dioxygen, in the absence (control) or in the presence of diethyl pyridine-2,4 dicarboxylate.
# [2] = tested on: HIF1-alpha protein; assay: Western blotting of the level of expression/stabilization of the HIF1-alpha protein in outer sheath keratinocytes; type: cell-based, human; conditions: keratinocyte cultures under normoxic conditions (21% oxygen)
# Source text: This third example consists in carrying out an analysis of the level of expression/stabilization of the HIF1-alpha protein using the Western blotting technique as a basis. To summarise, under normoxic conditions, the HIF1-alpha protein is hydroxylated on a proline residue (reaction catalyzed by a prolyl hydroxylase), ubiquitinylated and then degraded by the proteasome. Under hypoxic conditions, the HIF1-alpha protein is not hydroxylated and its expression level is maintained. To characterize the effect of diethyl pyridine-2,4-dicarboxylate on the level of expression/stabilization of HIF1-alpha, a protein extract was prepared on cultures of keratinocytes derived from the outer sheath of human hair follicles maintained and placed in culture under hypoxic conditions or under normoxic conditions, in the absence or presence of diethyl pyridine-2,4-dicarboxylate. […] In this regard, it may be stated that the effect of diethyl pyridine-2,4-dicarboxylate under normoxic conditions mimics the effect of hypoxic conditions on the expression/stabilization of the HIF1-alpha protein.
# [3] = tested on: keratinocytes from the outer sheath of human hair follicles; assay: CFE (Colony-forming efficiency) test for keratinocytes (including epithelial stem cells); type: cell-based; conditions: 21% dioxygen, 50 to 500 μM, 10 days culture
# Source text: It is possible to optionally add to these two evaluation processes a process aimed at establishing the impact of the active agent(s) capable of mimicking hypoxia on the quality of the epithelial stem cells. To do this, a CFE (Colony-forming efficiency) test can be carried out for keratinocytes (including epithelial stem cells), consisting in observing, respectively, under hypoxic conditions and under normoxic conditions in the presence or absence of active agent(s), the impact of the presence of the active agent(s) on the frequency of the cells capable of generating a cell clone within a given population, and also on the clonal morphology obtained, so as to thus establish their participation in the preservation of the functionality of the epithelial stem cells treated with the active agent(s). […]
# Next, the cells of the outer epithelial sheath thus extracted from the hair follicles and dissected are subsequently seeded in a proportion of 1000 cells/culture dish under CFE conditions, on a layer of irradiated 3T3 fibroblasts. […] At the end of the clonogenic culture and after fixing (via 70% ethanol) and staining (incubation with eosin, rinsing and then incubation with BlueRAL 555) of the cell clones obtained, the morphology of the clones and of the cells making up these clones is analyzed.
compound,measurement,setting,value
"CCOC(=O)c1ccnc(C(=O)OCC)c1 [diethyl pyridine-2,4-dicarboxylate]",expression of carbonic anhydrase 9 (molecular profile),[1],induces a molecular profile similar to that induced by hypoxia
same,level of expression/stabilization of the HIF1-alpha protein,[2],induces an increase in the amount of protein detected
same,number of clones,[3]; vs 21% dioxygen control conditions,does not significantly decrease
same,clonal morphology,[3]; vs untreated 21% dioxygen control,less diffuse and less dense than the controls; also recorded: generates clones similar to those obtained under hypoxic conditions
